Reference: PubChem BioAssay (NCI)
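Cultured in 96-well plates, cells were exposed to test compound for 48 hours across five concentrations. Here, GI50 denotes the concentration required for 50% inhibition of growth. TGI marks complete inhibition of growth.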

Assays:
Experiment in all cases: NCI tumour cell line growth inhibition, 48 h
[1] = test system: 786-0 renal
[2] = test system: A498 renal
[3] = test system: A549 NSCLC
[4] = test system: ACHN renal
[5] = test system: BT-549 breast
[6] = test system: CAKI-1 renal
[7] = test system: CCRF-CEM leukemia
[8] = test system: COLO 205 colon
[9] = test system: DU-145 prostate
[10] = test system: EKVX NSCLC
[11] = test system: HCC-2998 colon
[12] = test system: HCT-116 colon
[13] = test system: HCT-15 colon
[14] = test system: HL-60(TB) leukemia
[15] = test system: HOP-62 NSCLC
[16] = test system: HS 578T breast
[17] = test system: HT29 colon
[18] = test system: IGROV1 ovarian
[19] = test system: K-562 leukemia
[20] = test system: KM12 colon
[21] = test system: LOX IMVI melanoma
[22] = test system: M14 melanoma
[23] = test system: MALME-3M melanoma
[24] = test system: MCF7 breast
[25] = test system: MDA-MB-231 breast
[26] = test system: MDA-MB-435
[27] = test system: MOLT-4 leukemia
[28] = test system: NCI-H226 lung
[29] = test system: NCI-H23 lung
[30] = test system: NCI-H460 lung
[31] = test system: NCI-H522 lung
[32] = test system: NCI/ADR-RES ovarian
[33] = test system: OVCAR-3 ovarian
[34] = test system: OVCAR-4 ovarian
[35] = test system: OVCAR-5 ovarian
[36] = test system: OVCAR-8 ovarian
[37] = test system: PC-3 prostate
[38] = test system: RPMI-8226 leukemia
[39] = test system: RXF 393 renal
[40] = test system: SF-268 CNS
[41] = test system: SF-295 CNS
[42] = test system: SF-539 CNS
[43] = test system: SK-MEL-2 melanoma
[44] = test system: SK-MEL-28 melanoma
[45] = test system: SK-MEL-5 melanoma
[46] = test system: SK-OV-3 ovarian
[47] = test system: SN12C renal
[48] = test system: SNB-19 CNS
[49] = test system: SNB-75 CNS
[50] = test system: SR leukemia
[51] = test system: SW-620 colon
[52] = test system: T-47D breast
[53] = test system: TK-10 renal
[54] = test system: U251 CNS
[55] = test system: UACC-257 melanoma
[56] = test system: UACC-62 melanoma
[57] = test system: UO-31 renal

**Q.** What does the source list for `Cc1cc(N2CCOCC2)cc2[nH]c(-c3c(NC[C@@H](O)c4cccc(Cl)c4)cc[nH]c3=O)nc12`?
**A.** GI50 [1]: 1.21 µM; TGI [1]: 4.02 µM; GI50 [2]: 0.35 µM; TGI [2]: 1.15 µM; GI50 [3]: 0.903 µM; TGI [3]: 4.31 µM; GI50 [4]: 2.84 µM; TGI [4]: 80.2 µM; GI50 [5]: 1.83 µM; TGI [5]: 7.18 µM; GI50 [6]: 1.46 µM; TGI [6]: 5.72 µM; GI50 [7]: 4.01 µM; TGI [7]: > 100 µM; GI50 [8]: 0.118 µM; TGI [8]: 0.642 µM; GI50 [9]: 1.42 µM; TGI [9]: 14.7 µM; GI50 [10]: 1.62 µM; TGI [10]: 29.1 µM; GI50 [11]: 1.57 µM; TGI [11]: 6.15 µM; GI50 [12]: 1.64 µM; TGI [12]: 6.67 µM; GI50 [13]: 2.08 µM; TGI [13]: 31.5 µM; GI50 [14]: 0.0567 µM; TGI [14]: 2.45 µM; GI50 [15]: 2.16 µM; TGI [15]: 12.3 µM; GI50 [16]: 1.04 µM; TGI [16]: 4.42 µM; GI50 [17]: 0.0672 µM; TGI [17]: 1.81 µM; GI50 [18]: 0.912 µM; TGI [18]: 5.28 µM; GI50 [19]: 2.94 µM; TGI [19]: 13 µM; GI50 [20]: 0.0161 µM; TGI [20]: 4.46 µM; GI50 [21]: 0.387 µM; TGI [21]: 2.19 µM; GI50 [22]: 0.925 µM; TGI [22]: 7.66 µM; GI50 [23]: 1.68 µM; TGI [23]: 14.8 µM; GI50 [24]: 0.233 µM; TGI [24]: 15.8 µM; GI50 [25]: 1.22 µM; TGI [25]: 5.37 µM; GI50 [26]: 1.07 µM; TGI [26]: 7.9 µM; GI50 [27]: 3.14 µM; TGI [27]: 27.7 µM; GI50 [28]: 0.361 µM; TGI [28]: 5.89 µM; GI50 [29]: 1.29 µM; TGI [29]: 11.3 µM; GI50 [30]: 0.51 µM; TGI [30]: 11.2 µM; GI50 [31]: 1.78 µM; TGI [31]: 6.18 µM; GI50 [32]: 2.83 µM; TGI [32]: 12.3 µM; GI50 [33]: 5.58 µM; TGI [33]: 27.7 µM; GI50 [34]: 4.21 µM; TGI [34]: 40.4 µM; GI50 [35]: 0.673 µM; TGI [35]: 9.66 µM; GI50 [36]: 3.23 µM; TGI [36]: 14.7 µM; GI50 [37]: 3.7 µM; TGI [37]: > 100 µM; GI50 [38]: 3.22 µM; TGI [38]: > 100 µM; GI50 [39]: 0.567 µM; TGI [39]: 2.11 µM; GI50 [40]: 2.06 µM; TGI [40]: 7.63 µM; GI50 [41]: 2.72 µM; TGI [41]: 18.9 µM; GI50 [42]: 2.02 µM; TGI [42]: 4.85 µM; GI50 [43]: 1.98 µM; TGI [43]: 5.98 µM; GI50 [44]: 2.15 µM; TGI [44]: 13.5 µM; GI50 [45]: 2.13 µM; TGI [45]: 11.3 µM; GI50 [46]: 4.56 µM; TGI [46]: 25 µM; GI50 [47]: 0.798 µM; TGI [47]: 12.7 µM; GI50 [48]: 3.29 µM; TGI [48]: 22.8 µM; GI50 [49]: 1.15 µM; TGI [49]: 2.47 µM; GI50 [50]: 0.295 µM; TGI [50]: 5.06 µM; GI50 [51]: 1.05 µM; TGI [51]: 11.2 µM; GI50 [52]: 4.17 µM; TGI [52]: 37.8 µM; GI50 [53]: 1.55 µM; TGI [53]: 4.4 µM; GI50 [54]: 1.65 µM; TGI [54]: 4.38 µM; GI50 [55]: 0.385 µM; TGI [55]: 7.37 µM; GI50 [56]: 2.36 µM; TGI [56]: 12.6 µM; GI50 [57]: 0.275 µM; TGI [57]: 2.98 µM
